Measurements as given in ChEMBL document CHEMBL3885861, “Open TG-GATES”.

Species: Rattus norvegicus
Assay: Open TG-GATES - Regimen: Single
Assay type: toxicity, organism-based, Sprague-Dawley
Set-up: regimen Single, gender Male, age 6 weeks
Details: in vivo, po, route gavage; for APTT / Bas / Eos / Fbg / Hb / Ht / Lym / MCH / MCHC / MCV / Mono / Neu / PT / Plat / RBC / Ret / WBC: tissue Blood; for KIDNEY_L / KIDNEY_R / KIDNEY_TOTAL: tissue Kidney; for LIVER: tissue Liver; for A/G / ALP / ALT / AST / BUN / CRE / Ca / Cl / DBIL / GLC / IP / K / LDH / Na / PL / RALB / TBIL / TC / TG / TP / gamma-GTP: tissue Plasma
[1] = 0 mg/kg, 3 h, dose level Control
[2] = 0 mg/kg, 6 h, dose level Control
[3] = 0 mg/kg, 9 h, dose level Control
[4] = 0 mg/kg, 24 h, dose level Control

## Cc1ccc(C)c(OCCCC(C)(C)C(=O)O)c1 [GEMFIBROZIL]
[1]
  TERMINAL_BW: 223.7 g
  APTT: 16.9 s
  Bas: 0%
  Eos: 0.6%
  Fbg: 276.4 mg/dL
  Hb: 14 g/dL
  Ht: 40.2%
  Lym: 81.2%
  MCH: 22.6 pg
  MCHC: 34.9%
  MCV: 64.7 fL
  Mono: 2.8%
  Neu: 14.6%
  PT: 12.3 s
  Plat: 124.4 x10_4/uL
  RBC: 621.6 x10_4/ul
  Ret: 8%
  WBC: 76.9 x10_2/uL
  KIDNEY_L: 1 g
  KIDNEY_R: 0.9 g
  KIDNEY_TOTAL: 1.9 g
  LIVER: 9.8 g
  A/G: 0.9
  ALP: 1456 IU/L
  ALT: 45.2 IU/L
  AST: 71.2 IU/L
  BUN: 12.6 mg/dL
  CRE: 0.2 mg/dL
  Ca: 11.3 mg/dL
  Cl: 105 meq/L
  DBIL: 0.046 mg/dL
  GLC: 180.6 mg/dL
  IP: 10.4 mg/dL
  K: 4.2 meq/L
  LDH: 74 IU/L
  Na: 140.2 meq/L
  PL: 179.2 mg/dL
  RALB: 2.6 g/dL
  TBIL: 0.052 mg/dL
  TC: 86.4 mg/dL
  TG: 155.8 mg/dL
  TP: 5.6 g/dL
  gamma-GTP: 1 IU/L
[2]
  TERMINAL_BW: 221.6 g
  APTT: 16.7 s
  Bas: 0%
  Eos: 0.8%
  Fbg: 299 mg/dL
  Hb: 13.9 g/dL
  Ht: 40.6%
  Lym: 75.4%
  MCH: 21.4 pg
  MCHC: 34.3%
  MCV: 62.5 fL
  Mono: 3.6%
  Neu: 19.2%
  PT: 12.1 s
  Plat: 127 x10_4/uL
  RBC: 649.8 x10_4/ul
  Ret: 7.3%
  WBC: 71.6 x10_2/uL
  KIDNEY_L: 0.9 g
  KIDNEY_R: 0.9 g
  KIDNEY_TOTAL: 1.8 g
  LIVER: 9.1 g
  A/G: 0.9
  ALP: 1398 IU/L
  ALT: 43 IU/L
  AST: 70.6 IU/L
  BUN: 9.6 mg/dL
  CRE: 0.2 mg/dL
  Ca: 11.1 mg/dL
  Cl: 107.4 meq/L
  DBIL: 0.024 mg/dL
  GLC: 183 mg/dL
  IP: 10.9 mg/dL
  K: 4.3 meq/L
  LDH: 60.8 IU/L
  Na: 141.6 meq/L
  PL: 156 mg/dL
  RALB: 2.7 g/dL
  TBIL: 0.046 mg/dL
  TC: 86.2 mg/dL
  TG: 71.2 mg/dL
  TP: 5.6 g/dL
  gamma-GTP: 1.4 IU/L
[3]
  TERMINAL_BW: 223.1 g
  APTT: 15.5 s
  Bas: 0%
  Eos: 1%
  Fbg: 302.2 mg/dL
  Hb: 14 g/dL
  Ht: 41%
  Lym: 80%
  MCH: 21.6 pg
  MCHC: 34.1%
  MCV: 63.4 fL
  Mono: 2.6%
  Neu: 15.8%
  PT: 12.3 s
  Plat: 110.9 x10_4/uL
  RBC: 646.6 x10_4/ul
  Ret: 7.6%
  WBC: 69.8 x10_2/uL
  KIDNEY_L: 0.9 g
  KIDNEY_R: 0.9 g
  KIDNEY_TOTAL: 1.8 g
  LIVER: 8.6 g
  A/G: 0.9
  ALP: 1255.2 IU/L
  ALT: 36.6 IU/L
  AST: 65.4 IU/L
  BUN: 12 mg/dL
  CRE: 0.2 mg/dL
  Ca: 11.1 mg/dL
  Cl: 107 meq/L
  DBIL: 0.02 mg/dL
  GLC: 194.2 mg/dL
  IP: 11.9 mg/dL
  K: 4 meq/L
  LDH: 58 IU/L
  Na: 143.4 meq/L
  PL: 150.2 mg/dL
  RALB: 2.6 g/dL
  TBIL: 0.046 mg/dL
  TC: 82.2 mg/dL
  TG: 60.4 mg/dL
  TP: 5.4 g/dL
  gamma-GTP: 1.2 IU/L
[4]
  TERMINAL_BW: 226.6 g
  APTT: 14.7 s
  Bas: 0%
  Eos: 0.8%
  Fbg: 286 mg/dL
  Hb: 13.5 g/dL
  Ht: 38.9%
  Lym: 78.2%
  MCH: 21.7 pg
  MCHC: 34.7%
  MCV: 62.6 fL
  Mono: 2.6%
  Neu: 17.8%
  PT: 12 s
  Plat: 117.7 x10_4/uL
  RBC: 621.8 x10_4/ul
  Ret: 6.6%
  WBC: 87.1 x10_2/uL
  KIDNEY_L: 1 g
  KIDNEY_R: 0.9 g
  KIDNEY_TOTAL: 1.9 g
  LIVER: 10.2 g
  A/G: 1
  ALP: 1725.4 IU/L
  ALT: 48 IU/L
  AST: 74.6 IU/L
  BUN: 16.2 mg/dL
  CRE: 0.2 mg/dL
  Ca: 11.4 mg/dL
  Cl: 104.8 meq/L
  DBIL: 0.024 mg/dL
  GLC: 187 mg/dL
  IP: 8.7 mg/dL
  K: 4.1 meq/L
  LDH: 79.8 IU/L
  Na: 142 meq/L
  PL: 144.6 mg/dL
  RALB: 2.7 g/dL
  TBIL: 0.034 mg/dL
  TC: 78 mg/dL
  TG: 75 mg/dL
  TP: 5.6 g/dL
  gamma-GTP: 1 IU/L
30 mg/kg, 3 h, dose level Low
  TERMINAL_BW: 219.6 g
  APTT: 16 s
  Bas: 0%
  Eos: 0.6%
  Fbg: 282.6 mg/dL
  Hb: 14.2 g/dL
  Ht: 41%
  Lym: 79.2%
  MCH: 22.1 pg
  MCHC: 34.7%
  MCV: 63.6 fL
  Mono: 2.8%
  Neu: 16.6%
  PT: 12.4 s
  Plat: 113.5 x10_4/uL
  RBC: 644.2 x10_4/ul
  Ret: 7%
  WBC: 92.7 x10_2/uL
  KIDNEY_L: 0.9 g
  KIDNEY_R: 0.9 g
  KIDNEY_TOTAL: 1.8 g
  LIVER: 9.1 g
  A/G: 0.9
  ALP: 1552.4 IU/L
  ALT: 48.6 IU/L
  AST: 74.6 IU/L
  BUN: 11.6 mg/dL
  CRE: 0.2 mg/dL
  Ca: 11.2 mg/dL
  Cl: 106.8 meq/L
  DBIL: 0.046 mg/dL
  GLC: 181 mg/dL
  IP: 9.7 mg/dL
  K: 4 meq/L
  LDH: 60.8 IU/L
  Na: 141.6 meq/L
  PL: 156.2 mg/dL
  RALB: 2.6 g/dL
  TBIL: 0.048 mg/dL
  TC: 70 mg/dL
  TG: 141.4 mg/dL
  TP: 5.5 g/dL
  gamma-GTP: 1 IU/L
30 mg/kg, 6 h, dose level Low
  TERMINAL_BW: 221.2 g
  APTT: 15.2 s
  Bas: 0%
  Eos: 0.6%
  Fbg: 335.6 mg/dL
  Hb: 14.3 g/dL
  Ht: 41.1%
  Lym: 78.6%
  MCH: 22.1 pg
  MCHC: 34.9%
  MCV: 63.4 fL
  Mono: 2.4%
  Neu: 17.6%
  PT: 12.3 s
  Plat: 122 x10_4/uL
  RBC: 649.2 x10_4/ul
  Ret: 6.8%
  WBC: 75.7 x10_2/uL
  KIDNEY_L: 1 g
  KIDNEY_R: 0.9 g
  KIDNEY_TOTAL: 1.9 g
  LIVER: 9.2 g
  A/G: 0.9
  ALP: 1429.6 IU/L
  ALT: 41 IU/L
  AST: 75 IU/L
  BUN: 10.4 mg/dL
  CRE: 0.2 mg/dL
  Ca: 11.3 mg/dL
  Cl: 107.2 meq/L
  DBIL: 0.044 mg/dL
  GLC: 188 mg/dL
  IP: 10.4 mg/dL
  K: 4.2 meq/L
  LDH: 60.6 IU/L
  Na: 142.2 meq/L
  PL: 150.4 mg/dL
  RALB: 2.7 g/dL
  TBIL: 0.054 mg/dL
  TC: 77.2 mg/dL
  TG: 90.2 mg/dL
  TP: 5.6 g/dL
  gamma-GTP: 1.6 IU/L
30 mg/kg, 9 h, dose level Low
  TERMINAL_BW: 224 g
  APTT: 15 s
  Bas: 0%
  Eos: 0.8%
  Fbg: 313 mg/dL
  Hb: 13.8 g/dL
  Ht: 40.2%
  Lym: 76.8%
  MCH: 21.3 pg
  MCHC: 34.3%
  MCV: 62 fL
  Mono: 3.4%
  Neu: 18%
  PT: 12 s
  Plat: 106.6 x10_4/uL
  RBC: 649.2 x10_4/ul
  Ret: 7.1%
  WBC: 68.1 x10_2/uL
  KIDNEY_L: 0.9 g
  KIDNEY_R: 0.9 g
  KIDNEY_TOTAL: 1.9 g
  LIVER: 8.6 g
  A/G: 0.9
  ALP: 1676.4 IU/L
  ALT: 38 IU/L
  AST: 69.2 IU/L
  BUN: 11.8 mg/dL
  CRE: 0.2 mg/dL
  Ca: 10.9 mg/dL
  Cl: 107 meq/L
  DBIL: 0.046 mg/dL
  GLC: 189.2 mg/dL
  IP: 11.3 mg/dL
  K: 3.8 meq/L
  LDH: 52.8 IU/L
  Na: 143.4 meq/L
  PL: 147 mg/dL
  RALB: 2.6 g/dL
  TBIL: 0.05 mg/dL
  TC: 78.6 mg/dL
  TG: 66.4 mg/dL
  TP: 5.4 g/dL
  gamma-GTP: 1 IU/L
30 mg/kg, 24 h, dose level Low
  TERMINAL_BW: 227.1 g
  APTT: 14.5 s
  Bas: 0%
  Eos: 1%
  Fbg: 284.8 mg/dL
  Hb: 13.8 g/dL
  Ht: 39.8%
  Lym: 75.6%
  MCH: 22.3 pg
  MCHC: 34.7%
  MCV: 64.3 fL
  Mono: 2.4%
  Neu: 20.6%
  PT: 12.1 s
  Plat: 112.3 x10_4/uL
  RBC: 620 x10_4/ul
  Ret: 7.1%
  WBC: 70.3 x10_2/uL
  KIDNEY_L: 1 g
  KIDNEY_R: 1 g
  KIDNEY_TOTAL: 2 g
  LIVER: 10.5 g
  A/G: 0.9
  ALP: 1729.6 IU/L
  ALT: 47.4 IU/L
  AST: 70.4 IU/L
  BUN: 16 mg/dL
  CRE: 0.2 mg/dL
  Ca: 11.3 mg/dL
  Cl: 106.4 meq/L
  DBIL: 0.044 mg/dL
  GLC: 191 mg/dL
  IP: 7.7 mg/dL
  K: 4.5 meq/L
  LDH: 63.6 IU/L
  Na: 142.2 meq/L
  PL: 137.6 mg/dL
  RALB: 2.7 g/dL
  TBIL: 0.036 mg/dL
  TC: 68.6 mg/dL
  TG: 100.6 mg/dL
  TP: 5.6 g/dL
  gamma-GTP: 0.8 IU/L
